Data reported in ChEMBL document CHEMBL1201862, “PubChem BioAssay data set” (2004).
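48-hour exposure; five concentrations; linearly interpolated endpoints. GI50 is the concentration that inhibits growth by half.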 The source made the active and inactive calls. Rule as the data show it: active = GI50 up to about 1.1 µM and inactive = higher.

What was measured:
Test in all cases: DTP human tumour cell line panel, 48 h
A549 = tested on: A549
ACHN = tested on: ACHN
BT-549 = tested on: BT-549
DMS-114 = tested on: DMS-114
HCT-116 = tested on: HCT-116
HT-29 = tested on: HT-29
K562 = tested on: K562
LOX IMVI = tested on: LOX IMVI
M14 = tested on: M14
MCF7 = tested on: MCF7
MOLT-4 = tested on: MOLT-4
NCI-H460 = tested on: NCI-H460
OVCAR-4 = tested on: OVCAR-4
RPMI-8226 = tested on: RPMI-8226
SF-539 = tested on: SF-539
SK-MEL-2 = tested on: SK-MEL-2
SK-MEL-5 = tested on: SK-MEL-5
SR = tested on: SR
T47D = tested on: T47D
UO-31 = tested on: UO-31

Row | SMILES | GI50 (A549) | GI50 (ACHN) | GI50 (BT-549) | GI50 (DMS-114) | GI50 (HCT-116) | GI50 (HT-29) | GI50 (K562) | GI50 (LOX IMVI) | GI50 (M14) | GI50 (MCF7) | GI50 (MOLT-4) | GI50 (NCI-H460) | GI50 (OVCAR-4) | GI50 (RPMI-8226) | GI50 (SF-539) | GI50 (SK-MEL-2) | GI50 (SK-MEL-5) | GI50 (SR) | GI50 (T47D) | GI50 (UO-31)
1 | COc1cc(NS(C)(=O)=O)ccc1Nc1c2ccccc2nc2c1[nH]c1ccc(NC3OC(CO)C(O)C(O)C3O)cc12 (stereo not drawn) | < 0.0134 µM (active) | < 0.0161 µM (active) | 1.3 µM (inactive) | < 0.01 µM (active) | 0.0472 µM (active) | 0.159 µM (active) | 0.191 µM (active) | < 0.0154 µM (active) | 0.0399 µM (active) | 0.023 µM (active) | < 0.01 µM (active) | < 0.01 µM (active) | 1.36 µM (inactive) | 0.0973 µM (active) | < 0.01 µM (active) | 0.269 µM (active) | 0.0859 µM (active) | < 0.01 µM (active) | 0.0327 µM (active) | 0.128 µM (active)
2 | Cc1cc(=O)n(-c2ccccc2)c(=O)o1 | > 100 µM (inactive) | > 100 µM (inactive) | – | > 100 µM (inactive) | > 100 µM (inactive) | > 100 µM (inactive) | > 100 µM (inactive) | 32.8 µM (inactive) | > 100 µM (inactive) | – | > 100 µM (inactive) | > 100 µM (inactive) | > 100 µM (inactive) | > 100 µM (inactive) | > 100 µM (inactive) | > 100 µM (inactive) | > 100 µM (inactive) | > 100 µM (inactive) | – | > 100 µM (inactive)
3 | CC(=O)OCC1OC(N2C(=O)C(=O)c3ccccc32)C(OC(C)=O)C(OC(C)=O)C1OC(C)=O (stereo not drawn) | > 100 µM (inactive) | > 100 µM (inactive) | – | > 100 µM (inactive) | – | > 100 µM (inactive) | > 100 µM (inactive) | > 100 µM (inactive) | > 100 µM (inactive) | – | > 100 µM (inactive) | > 100 µM (inactive) | > 100 µM (inactive) | > 100 µM (inactive) | > 100 µM (inactive) | > 100 µM (inactive) | > 100 µM (inactive) | > 100 µM (inactive) | – | > 100 µM (inactive)
4 | CC[C@H]1[C@@H](C)C=C[C@@H](C)N1S(=O)(=O)c1ccc(C)cc1 | > 100 µM (inactive) | 67 µM (inactive) | – | 19.1 µM (inactive) | 51.6 µM (inactive) | > 100 µM (inactive) | 89.9 µM (inactive) | > 100 µM (inactive) | > 100 µM (inactive) | – | 79.3 µM (inactive) | > 10 µM (inactive) | > 100 µM (inactive) | 34.1 µM (inactive) | > 100 µM (inactive) | 19.8 µM (inactive) | 92 µM (inactive) | 66.5 µM (inactive) | – | 5.26 µM (inactive)
5 | CCOC12OC3=C(CC1CC1=C(CCC1=O)O2)C(=O)CC3 (stereo not drawn) | > 100 µM (inactive) | – | – | > 100 µM (inactive) | > 100 µM (inactive) | > 100 µM (inactive) | > 100 µM (inactive) | > 100 µM (inactive) | > 100 µM (inactive) | – | > 100 µM (inactive) | > 100 µM (inactive) | > 100 µM (inactive) | > 100 µM (inactive) | > 100 µM (inactive) | > 100 µM (inactive) | > 100 µM (inactive) | > 100 µM (inactive) | – | > 100 µM (inactive)
6 | Cc1ccc(-c2cc(O)c3cc4c(cc3n2)OCO4)cc1 | 2.02 µM (inactive) | 7.67 µM (inactive) | – | 2.48 µM (inactive) | 1.24 µM (inactive) | 2.18 µM (inactive) | 0.705 µM (active) | 2.67 µM (inactive) | 0.817 µM (active) | – | 2.72 µM (inactive) | 0.82 µM (active) | 8.97 µM (inactive) | 2.13 µM (inactive) | 1.31 µM (inactive) | 1.72 µM (inactive) | 0.35 µM (active) | 0.973 µM (active) | – | > 21.3 µM (inactive)
